Measurements taken from ChEMBL document CHEMBL1799910, “Optimization of 1,2,3,4-tetrahydroacridin-9(10H)-ones as antimalarials utilizing structure-activity and structure-property relationships” (J Med Chem, 2011).
Values after ≈ are worked out from the molar mass of the structure shown.

Tests used:
[1] = Cytotoxicity index, ratio of EC50 for mouse J774 cells to EC50 for chloroquine, mefloquine, pyrimethamine and atovaquone-resistant Plasmodium falciparum TM90-C2B; format: cell-based; conditions: read-out: Ratio EC50
Plasmodium falciparum [2] = experiment: Antimalarial activity against chloroquine and pyrimethamine-resistant Plasmodium falciparum W2 infected in human A positive erythrocytes after 72 hrs by SYBR Green I assay; format: functional, organism-based; conditions: W2, 72 h
Plasmodium falciparum [3] = experiment: Resistance index, ratio of EC50 for chloroquine, mefloquine, pyrimethamine and atovaquone-resistant Plasmodium falciparum TM90-C2B to EC50 for chloroquine and pyrimethamine-resistant Plasmodium falciparum W2; format: functional
[4] = Aqueous solubility of compound at pH 7.4 by HPLC analysis; conditions: buffer
[5] = Partition coefficient, log D of the compound at pH 7.4 by HPLC analysis; conditions: octanol/water
[6] = Permeability of the compound by PAMPA method at pH 7.4; format: ADME; conditions: read-out: permeability
Plasmodium falciparum [7] = experiment: Antimalarial activity against chloroquine, mefloquine, pyrimethamine and atovaquone-resistant Plasmodium falciparum TM90-C2B infected in human A positive erythrocytes after 72 hrs by SYBR Green I assay; format: functional, organism-based
J774 = experiment: Cytotoxicity against mouse J774 cells after 72 hrs by Cell titer 96 aqueous one solution cell proliferation assay; format: cell-based; conditions: J774, 72 h

| Structure (SMILES) | selectivity ratio [1] | EC50 (Plasmodium falciparum [2]) [nM] | Ratio EC50 (Plasmodium falciparum [3]) | solubility [4] [µM] | logD [5] | Papp [6] [×10⁻⁶ cm/s] | EC50 (Plasmodium falciparum [7]) [nM] | EC50 (J774) [nM] |
| --- | --- | --- | --- | --- | --- | --- | --- | --- |
| O=C1CC(c2ccc(Cl)cc2Cl)Cc2nc3ccc(Cl)cc3c(O)c21 (centres undefined) | ≥ 100 | 8.71 | 3.19 | 1 (≈ 0.393 µg/mL) | 3.1 | 20 | 27.8 | – |
| Cc1cc2[nH]c3c(c(=O)c2cc1C)CCCC3 | – | 262 | – | 41 (≈ 9.32 µg/mL) | – | 46 | 216 | > 20000 |
| O=c1c2c([nH]c3ccc(Cl)cc13)CCCC2 | ≥ 100 | 99.4 | 0.63 | 4 (≈ 0.935 µg/mL) | 2 | 57 | 63.4 | > 2000 |
| O=c1c2c([nH]c3cccc(Cl)c13)CCCC2 | ≥ 100 | 368 | 1.22 | 99 (≈ 23.1 µg/mL) | 1.8 | 47 | 447 | > 5000 |
| CC1(C)CCc2[nH]c3ccccc3c(=O)c2C1 | ≥ 100 | 421 | 0.7 | 35 (≈ 7.96 µg/mL) | 1.8 | 43 | 295 | > 20000 |
| COc1cccc2c(=O)c3c([nH]c12)CCC(C)(C)C3 | ≥ 100 | 1990 | 0.31 | 91 (≈ 23.4 µg/mL) | 2.4 | 95 | 620 | > 40000 |
| COc1ccc2[nH]c3c(c(=O)c2c1)CC(C)(C)CC3 | ≥ 100 | 8400 | >1.16 | 38 (≈ 9.78 µg/mL) | 2 | 73 | > 9720 | > 20000 |
| COc1cccc2[nH]c3c(c(=O)c12)CC(C)(C)CC3 | ≥ 100 | 5240 | 0.67 | 83 (≈ 21.4 µg/mL) | 1.9 | 54 | 3500 | > 20000 |
| Cc1cccc2c(=O)c3c([nH]c12)CCC(C)(C)C3 | ≥ 100 | 791 | 0.67 | 38 (≈ 9.17 µg/mL) | 2.3 | 90 | 531 | > 40000 |
| COc1ccc2[nH]c3c(c(=O)c2c1)CCC(C)(C)C3 | ≥ 100 | > 9720 | – | 9.2 (≈ 2.37 µg/mL) | 2.3 | 128 | > 9720 | > 5000 |
| Cc1cccc2[nH]c3c(c(=O)c12)CCC(C)(C)C3 | ≥ 100 | > 9990 | – | 9 (≈ 2.17 µg/mL) | 2.8 | 240 | > 9990 | > 5000 |
| CC1(C)CCc2c([nH]c3cc(Cl)ccc3c2=O)C1 | ≥ 100 | 1080 | 0.6 | 1 (≈ 0.262 µg/mL) | 2.9 | – | 645 | > 1000 |
| CC(C)(C)c1cccc2c(=O)c3c([nH]c12)CCCC3 | ≥ 100 | > 9790 | – | 90 (≈ 23 µg/mL) | 3.3 | 553 | > 9790 | > 10000 |
| O=c1c2c([nH]c3c(C(F)(F)F)cccc13)CCCC2 | ≥ 100 | > 9350 | – | 116 (≈ 31 µg/mL) | 2.6 | 246 | > 9350 | > 20000 |
| Cc1cc(C)c2c(=O)c3c([nH]c2c1)CCCC3 | ≥ 100 | 3130 | 1.54 | 17 (≈ 3.86 µg/mL) | 2.4 | 218 | 4830 | – |
| COc1ccc(OC)c2c(=O)c3c([nH]c12)CCCC3 | ≥ 100 | > 9640 | – | 105 (≈ 27.2 µg/mL) | 1.5 | 9 | > 9640 | > 20000 |
| COc1ccc2c(=O)c3c([nH]c2c1)CCC3 | ≥ 100 | 1130 | 0.54 | 91 (≈ 19.6 µg/mL) | 1.5 | 11 | 610 | > 40000 |
| COc1ccc2c(=O)c3c([nH]c2c1)CCCCC3 | ≥ 100 | 171 | 0.89 | 30 (≈ 7.3 µg/mL) | 2.1 | 39 | 153 | > 20000 |
| COc1ccc2c(=O)c3c([nH]c2c1)CCCCCC3 | ≥ 100 | 146 | 1.58 | 98 (≈ 25.2 µg/mL) | 2.4 | 73 | 230 | > 40000 |
| O=c1c2c([nH]c3cc(C(F)(F)F)ccc13)CCC2 | ≥ 100 | 2320 | 0.19 | 98 (≈ 24.8 µg/mL) | 2.3 | 60 | 438 | > 40000 |

| Structure (SMILES) | selectivity ratio [1] | EC50 (Plasmodium falciparum [2]) [nM] | Ratio EC50 (Plasmodium falciparum [3]) | solubility [4] [µM] | logD [5] | Papp [6] [×10⁻⁶ cm/s] | EC50 (Plasmodium falciparum [7]) [nM] | EC50 (J774) [nM] |
| --- | --- | --- | --- | --- | --- | --- | --- | --- |
| O=c1c2c([nH]c3cc(C(F)(F)F)ccc13)CCCC2 | ≥ 100 | 120 | 0.16 | 158 (≈ 42.2 µg/mL) | 2.7 | 73 | 19 | > 20000 |
| O=c1c2c([nH]c3cc(C(F)(F)F)ccc13)CCCCC2 | ≥ 100 | 4890 | >0.88 | 17 (≈ 4.78 µg/mL) | 3 | 131 | > 4340 | > 10000 |
| O=c1c2c([nH]c3cc(C(F)(F)F)ccc13)CCCCCC2 | ≥ 100 | 4740 | 0.89 | 13 (≈ 3.84 µg/mL) | 3.2 | 252 | 4230 | > 10000 |
| COc1cccc2c(=O)c3c([nH]c12)CCCC3 | ≥ 100 | 4770 | 0.95 | 99 (≈ 22.7 µg/mL) | 1.7 | 16 | 4560 | > 20000 |
| COc1ccc2[nH]c3c(c(=O)c2c1)CCCC3 | ≥ 100 | 2440 | 1.03 | 78 (≈ 17.9 µg/mL) | 1.5 | 16 | 2530 | > 40000 |
| COc1cccc2[nH]c3c(c(=O)c12)CCCC3 | ≥ 100 | 8970 | 0.66 | 76 (≈ 17.4 µg/mL) | 1.2 | 17 | 5940 | > 20000 |
| Cc1ccc2[nH]c3c(c(=O)c2c1)CCCC3 | ≥ 100 | 449 | 1.46 | 44 (≈ 9.38 µg/mL) | 1.7 | 19 | 656 | > 40000 |
| Cc1cccc2[nH]c3c(c(=O)c12)CCCC3 | ≥ 100 | 6250 | 0.73 | 99 (≈ 21.1 µg/mL) | 2.1 | 87 | 4570 | > 20000 |
| O=c1c2c([nH]c3c(Cl)cccc13)CCCC2 | ≥ 100 | 1350 | >7.9 | 107 (≈ 25 µg/mL) | 2.2 | 107 | > 9000 | > 20000 |
| O=c1c2c([nH]c3c(Cl)ccc(Cl)c13)CCCC2 | ≥ 100 | > 9320 | – | 108 (≈ 29 µg/mL) | 2.6 | 288 | > 9320 | > 20000 |
| O=c1c2c([nH]c3c(Cl)cc(Cl)cc13)CCCC2 | ≥ 100 | > 9320 | – | 1 (≈ 0.268 µg/mL) | 3 | 252 | > 9320 | > 1000 |
| CC(C)Oc1cc2[nH]c3c(c(=O)c2cc1Cl)CCCC3 | ≥ 100 | 21.3 | 4.88 | 0.3 (≈ 0.0875 µg/mL) | 2.9 | – | 104 | > 100 |
| O=c1c2c([nH]c3cc(Br)ccc13)CCSC2 | ≥ 100 | 667 | – | 17 (≈ 5.04 µg/mL) | 0.9 | 6.3 | > 8440 | > 10000 |
| CN1CCc2[nH]c3ccccc3c(=O)c2C1 | ≥ 100 | > 9990 | – | 33 (≈ 7.07 µg/mL) | 1 | 21 | > 9990 | > 20000 |
| O=c1c2c([nH]c3ccc(Oc4ccc(F)cc4)cc13)CCCC2 | ≥ 100 | 169 | 0.28 | 8 (≈ 2.47 µg/mL) | 2.8 | – | 47 | > 5000 |
| O=c1c2c([nH]c3cc(Cl)ccc13)CCCC2 | ≥ 100 | 137 | 0.89 | 15 (≈ 3.51 µg/mL) | 2.2 | 75 | 122 | > 10000 |
| CN(C)CCC/N=C1\CC(c2ccc(Cl)cc2Cl)Cc2nc3ccc(Cl)cc3c(O)c21 (racemic) | ≥ 100 | 25 | 12 | – | – | – | 300 | – |
| C[C@H]1[C@@H](O)O[C@@H]2O[C@@]3(C)CC[C@H]4[C@H](C)CC[C@@H]1[C@@]24OO3 [ARTENIMOL] | – | 1.8 | – | – | – | – | 0.9 | – |
| O=C1C(O)=C([C@H]2CC[C@H](c3ccc(Cl)cc3)CC2)C(=O)c2ccccc21 [ATOVAQUONE] | – | 0.53 | – | – | – | – | > 170 | – |
